A short description of one data set: MT4 cytotoxicity (CC50). The settings on record: human, MT4 cells.
The next data set relates to SARS-CoV-2. Kind of data set: microbe, parasite or virus in culture. It counts as cell-based. The conditions noted are these: Severe acute respiratory syndrome coronavirus 2, read-out: SARS EC50.
Data set [1] has as its system Recombinant Respiratory Syncytial virus strain A2 containing the firefly luciferase reporter (RSV-Fluc). Put plainly: microbe, parasite or virus in culture. It counts as cell-based. The settings on record: human respiratory syncytial virus, NHBE.
The mark [2] stands for this setting: 72 h, read-out: RSV-Fluc EC50 (NHBE), NHBE cells, three days, Table 2.

Where two headings read alike, the source gives them in different places.

As for `CCCCCCCCCCCCCCCCOC[C@H](COP(=O)(O)OC[C@H]1O[C@@](C#N)(c2ccc3c(N)ncnn23)[C@H](O)[C@@H]1O)OCc1ccc(OC)cc1` [Example 97, ((2R,3S,4R,5R)-5-(4-aminopyrrolo[2,1-f][1,2,4]triazin-7-yl)-5-cyano-3,4-dihydroxytetrahydrofuran-2-yl)methyl ((R)-3-(hexadecyloxy)-2-((4-methoxybenzyl)oxy)propyl) hydrogen phosphate], half-maximal cytotoxicity in the data set “MT4 cytotoxicity (CC50)” (MT4 CC50, Table 4) (CC50) was put at 652 nM. Moreover, the EC50 (commonly the concentration needed to bring the measured effect to its halfway point) is 99 nM in the data set on SARS-CoV-2 and 40 nM in data set [1] (read-out: RSV EC50, Table 4).
For `CCCCCCCCCCCCCCCCCCOC[C@H](COP(=O)(O)OC[C@H]1O[C@@](C#N)(c2ccc3c(N)ncnn23)[C@H](O)[C@@H]1O)OCc1cccc(C#N)n1` [Example 107, [(2R,3S,4R,5R)-5-(4-Aminopyrrolo[2,1-f][1,2,4]triazin-7-yl)-5-cyano-3,4-dihydroxy-tetrahydrofuran-2-yl]methyl [(2R)-2-[(6-cyano-2-pyridyl)methoxy]-3-octadecoxy-propyl] hydrogen phosphate] the same measures were 885 nM, 370 nM and 80 nM.
`CCCCCCCCCCCCCCCCCCOC[C@H](COP(=O)(O)OC[C@H]1O[C@@](C#N)(c2ccc3c(N)ncnn23)[C@H](O)[C@@H]1O)n1cc(C#N)nn1` [Example 81, ((2R,3S,4R,5R)-5-(4-aminopyrrolo[2,1-f][1,2,4]triazin-7-yl)-5-cyano-3,4-dihydroxytetrahydrofuran-2-yl)methyl ((R)-2-(4-cyano-1H-1,2,3-triazol-1-yl)-3-(octadecyloxy)propyl) hydrogen phosphate]: the CC50 – broadly, the concentration at which the toxic effect on the cells reaches its halfway point – in the data set “MT4 cytotoxicity (CC50)” (MT4 CC50, Table 4) was determined as 31100 nM. Also, the EC50 with SARS-CoV-2 amounted to 1900 nM; in data set [1] (read-out: RSV EC50, Table 4), 68 nM.
In turn, `CCCCCCCCCCCCCCOCCCCOP(=O)(O)OC[C@H]1O[C@@](C#N)(c2ccc3c(N)ncnn23)[C@H](O)[C@@H]1O` [Example 120, [(2R,3S,4R,5R)-5-(4-Aminopyrrolo[2,1-f][1,2,4]triazin-7-yl)-5-cyano-3,4-dihydroxy-tetrahydrofuran-2-yl]methyl 4-tetradecoxybutyl hydrogen phosphate] returned a CC50 in “MT4 cytotoxicity (CC50)” (MT4 CC50, Table 4) of 12100 nM. Besides, the EC50 with SARS-CoV-2 was determined as 10000 nM; in data set [1] (read-out: RSV EC50, Table 4) it was 224 nM.
`CCCCCCCC/C=C/CCCCCCCCOC[C@H](COP(=O)(O)OC[C@H]1O[C@@](C#N)(c2ccc3c(N)ncnn23)[C@H](O)[C@@H]1O)OCc1ccccc1` [Example 131, ((2R,3S,4R,5R)-5-(4-aminopyrrolo[2,1-f][1,2,4]triazin-7-yl)-5-cyano-3,4-dihydroxytetrahydrofuran-2-yl)methyl ((R)-2-(benzyloxy)-3-(((E)-octadec-9-en-1-yl)oxy)propyl) hydrogen phosphate] registered a CC50 in the data set “MT4 cytotoxicity (CC50)” (MT4 CC50, Table 4) of 3390 nM. Besides, the EC50 in the data set with SARS-CoV-2 is 110 nM; in data set [1] (read-out: RSV EC50, Table 4), 39 nM.
The compound `CCCCCCCCCCCCCCCCCCOC[C@H](COP(=O)(O)OC[C@H]1O[C@@](C#N)(c2ccc3c(N)ncnn23)[C@H](O)[C@@H]1O)OCc1ccc(C#N)cc1OC` [Example 114, [(2R,3S,4R,5R)-5-(4-Aminopyrrolo[2,1-f][1,2,4]triazin-7-yl)-5-cyano-3,4-dihydroxy-tetrahydrofuran-2-yl]methyl [(2R)-2-[(4-cyano-2-methoxy-phenyl)methoxy]-3-octadecoxy-propyl] hydrogen phosphate] gave a CC50 in “MT4 cytotoxicity (CC50)” (MT4 CC50, Table 4) of 1880 nM. In addition, the EC50 in the data set with SARS-CoV-2 was 480 nM; in data set [1] (read-out: RSV EC50, Table 4) it was 93 nM.
With `CCCCCCCCCCCCCCCCOC[C@H](COP(=O)(O)OC[C@H]1O[C@@](C#N)(c2ccc3c(N)ncnn23)[C@H](O)[C@@H]1O)OCCCCCCCCCCCCCCCC` [Example 61, ((2R,3S,4R,5R)-5-(4-Aminopyrrolo[2,1-f][1,2,4]triazin-7-yl)-5-cyano-3,4-dihydroxytetrahydrofuran-2-yl)methyl ((R)-2,3-bis(hexadecyloxy)propyl) hydrogen phosphate], the CC50 in the data set “MT4 cytotoxicity (CC50)” (MT4 CC50, Table 2a) was 50000 nM. The EC50 is 10000 nM with SARS-CoV-2; 4500 nM in data set [1] (setting [2]); 4540 nM in data set [1] (read-out: RSV EC50, Table 2a).
`CCCCCCCCCCCCCCCCCCOC[C@H](COP(=O)(O)OC[C@H]1O[C@@](C#N)(c2ccc3c(N)ncnn23)[C@H](O)[C@@H]1O)OCc1cc(C#N)ccc1OC` [Example 104, [(2R,3S,4R,5R)-5-(4-Aminopyrrolo[2,1-f][1,2,4]triazin-7-yl)-5-cyano-3,4-dihydroxy-tetrahydrofuran-2-yl]methyl [(2R)-2-[(5-cyano-2-methoxy-phenyl)methoxy]-3-octadecoxy-propyl] hydrogen phosphate]: the CC50 in “MT4 cytotoxicity (CC50)” (MT4 CC50, Table 4) is 2550 nM. Also, the EC50 with SARS-CoV-2 was 1300 nM; in data set [1] (read-out: RSV EC50, Table 4), 222 nM.
For `CCCCCCCCCCCCCCCCOC[C@H](COP(=O)(O)OC[C@H]1O[C@@](C#N)(c2ccc3c(N)ncnn23)[C@H](O)[C@@H]1O)OCc1ccc(C#N)c(F)c1` [Example 113, [(2R,3S,4R,5R)-5-(4-aminopyrrolo[2,1-f][1,2,4]triazin-7-yl)-5-cyano-3,4-dihydroxy-tetrahydrofuran-2-yl]methyl [(2R)-2-[(4-cyano-3-fluoro-phenyl)methoxy]-3-hexadecoxy-propyl] hydrogen phosphate] the same measures were 5450 nM, 1100 nM and 210 nM.
In the data set “MT4 cytotoxicity (CC50)” (MT4 CC50, Table 2a), `CCCCCCCCCCCCCCCCCCOC[C@H](COP(=O)(O)OC[C@H]1O[C@@](C#N)(c2ccc3c(N)ncnn23)[C@H](O)[C@@H]1O)OCc1ccc(C(F)F)cc1` [Example 33, ((2R,3S,4R,5R)-5-(4-aminopyrrolo[2,1-f][1,2,4]triazin-7-yl)-5-cyano-3,4-dihydroxytetrahydrofuran-2-yl)methyl ((R)-2-((4-(difluoromethyl)benzyl)oxy)-3-(octadecyloxy)propyl) hydrogen phosphate] returned a CC50 of 8850 nM. For the same compound, the EC50 with SARS-CoV-2 stood at 3020 nM; in data set [1] (read-out: RSV EC50, Table 2a) it was 77 nM.
For the compound `CCCCCCCCCCCCCCCCCOC[C@H](COP(=O)(O)OC[C@H]1O[C@@](C#N)(c2ccc3c(N)ncnn23)[C@H](O)[C@@H]1O)OCc1ccc(C#N)cc1` [Example 36, ((2R,3S,4R,5R)-5-(4-aminopyrrolo[2,1-f][1,2,4]triazin-7-yl)-5-cyano-3,4-dihydroxytetrahydrofuran-2-yl)methyl ((R)-2-((4-cyanobenzyl)oxy)-3-(heptadecyloxy)propyl) hydrogen phosphate], the CC50 in the data set “MT4 cytotoxicity (CC50)” (MT4 CC50, Table 2a) is 530 nM. For the same compound, the EC50 is 404 nM with SARS-CoV-2 and 17 nM in data set [1] (read-out: RSV EC50, Table 2a).
As for `CCCCCCCCCCCCCCCCCCOC[C@](C)(COP(=O)(O)OC[C@H]1O[C@@](C#N)(c2ccc3c(N)ncnn23)[C@H](O)[C@@H]1O)OCc1ccccc1` [Example 21, ((2R,3S,4R,5R)-5-(4-aminopyrrolo[2,1-f][1,2,4]triazin-7-yl)-5-cyano-3,4-dihydroxytetrahydrofuran-2-yl)methyl ((R)-2-(benzyloxy)-2-methyl-3-(octadecyloxy)propyl) hydrogen phosphate], it took 50000 nM to reach half-maximal cytotoxicity in the data set “MT4 cytotoxicity (CC50)” (MT4 CC50, Table 2a) (CC50). Besides, the concentration giving a half-maximal response (EC50) turned out to be 1740 nM in the data set on SARS-CoV-2; 76 nM in data set [1] (setting [2]); 77 nM in data set [1] (read-out: RSV EC50, Table 2a).
Take `CCCCCCCCCCCCCCCCCCOC[C@H](COP(=O)(O)OC[C@H]1O[C@@](C#N)(c2ccc3c(N)ncnn23)[C@H](O)[C@@H]1O)Oc1ccc(C#N)nc1` [Example 78, ((2R,3S,4R,5R)-5-(4-aminopyrrolo[2,1-f][1,2,4]triazin-7-yl)-5-cyano-3,4-dihydroxytetrahydrofuran-2-yl)methyl ((R)-2-((6-cyanopyridin-3-yl)oxy)-3-(octadecyloxy)propyl) hydrogen phosphate]: it took 133 nM to reach half-maximal cytotoxicity in “MT4 cytotoxicity (CC50)” (MT4 CC50, Table 4) (CC50). Further, the EC50 with SARS-CoV-2 was 33 nM; in data set [1] (read-out: RSV EC50, Table 4), 7 nM.
`CCCCCCCCCCCCCCCCCCOC[C@H](COP(=O)(O)OC[C@H]1O[C@@](C#N)(c2ccc3c(N)ncnn23)[C@H](O)[C@@H]1O)OCc1cc(C#N)cc(OC)c1` [Example 106, [(2R,3S,4R,5R)-5-(4-Aminopyrrolo[2,1-f][1,2,4]triazin-7-yl)-5-cyano-3,4-dihydroxy-tetrahydrofuran-2-yl]methyl [(2R)-2-[(3-cyano-5-methoxy-phenyl)methoxy]-3-octadecoxy-propyl] hydrogen phosphate]: the CC50 in the data set “MT4 cytotoxicity (CC50)” (MT4 CC50, Table 4) turned out to be 871 nM. The EC50 was found to be 10000 nM in the data set with SARS-CoV-2 and 88 nM in data set [1] (read-out: RSV EC50, Table 4).
Consider `CCCCCCCCCCCCCCCCCCOC[C@H](COP(=O)(O)OC[C@H]1O[C@@](C#N)(c2ccc3c(N)ncnn23)[C@H](O)[C@@H]1O)OC(C)c1ccccc1` (single isomer, unassigned) [Example 27], for which, in the data set “MT4 cytotoxicity (CC50)” (MT4 CC50, Table 2a), the midpoint of cytotoxicity, the CC50, lay at 614 nM. Moreover, the EC50 with SARS-CoV-2 was 2000 nM; in data set [1] (setting [2]) it was 110 nM; in data set [1] (read-out: RSV EC50, Table 2a) it was 113 nM.
With `CCCCCCCCCCCCCCCCCCOC[C@H](COP(=O)(O)OC[C@H]1O[C@@](C#N)(c2ccc3c(N)ncnn23)[C@H](O)[C@@H]1O)OCc1ccsc1` [Example 20, ((2R,3S,4R,5R)-5-(4-aminopyrrolo[2,1-f][1,2,4]triazin-7-yl)-5-cyano-3,4-dihydroxytetrahydrofuran-2-yl)methyl ((R)-3-(octadecyloxy)-2-(thiophen-3-ylmethoxy)propyl) hydrogen phosphate], half-maximal cytotoxicity in the data set “MT4 cytotoxicity (CC50)” (MT4 CC50, Table 2a) (CC50) was put at 13200 nM. The EC50 in the data set on SARS-CoV-2 stood at 264 nM; in data set [1] (setting [2]), 76 nM; in data set [1] (read-out: RSV EC50, Table 2a) it was 76 nM.
`CCCCCCCCCCCCCCCCCOCC[C@H](COP(=O)(O)OC[C@H]1O[C@@](C#N)(c2ccc3c(N)ncnn23)[C@H](O)[C@@H]1O)OCc1ccc(C#N)cc1` [Example 111, [(2R,3S,4R,5R)-5-(4-Aminopyrrolo[2,1-f][1,2,4]triazin-7-yl)-5-cyano-3,4-dihydroxy-tetrahydrofuran-2-yl]methyl [(2R)-2-[(4-cyanophenyl)methoxy]-4-heptadecoxy-butyl] hydrogen phosphate] came in with a CC50 in the data set “MT4 cytotoxicity (CC50)” (MT4 CC50, Table 4) of 18900 nM. Besides, the EC50 in the data set on SARS-CoV-2 worked out at 3500 nM; in data set [1] (read-out: RSV EC50, Table 4), 499 nM.

These data come from patent US12030904B2 (priority 2020, dated 2024).
